{"source": "patent US20030133987A1", "about": "“Drug nanoparticles from template emulsions” (priority 2002, published 2003)", "assay": "In-vitro dissolution, standard protocol according to USP 24 monographs", "assay_type": "physicochemical", "conditions": "HPLC or UV/VIS detection, control (drug as received) in parenthesis", "experimental": "The dissolution progress was measured after 5, 10, 15, and 60 minutes using either High Pressure Liquid Chromatography (HPLC) or UV/VIS detection as the analytical tools. […] For comparison, the corresponding data for the controls are given in parenthesis."}
{"compound": "CC(=O)N1CCN(c2ccc(OCC3COC(Cn4ccnc4)(c4ccc(Cl)cc4Cl)O3)cc2)CC1", "note": "(stereo not shown) [Ketoconazole, ketoconazole]", "values": [{"measurement": "percent of dissolved sample, 5 min", "setting": "5 min", "result": 31, "unit": "%"}, {"measurement": "percent of dissolved sample, 10 min", "setting": "10 min", "result": 41, "unit": "%"}, {"measurement": "percent of dissolved sample, 15 min", "setting": "15 min", "result": 48, "unit": "%"}, {"measurement": "percent of dissolved sample, 60 min", "setting": "60 min", "result": "(100%)"}]}
